Experimental data reported in BigSolDB 2.1.

COc1c(N2CCNC(C)C2)c(F)cc2c(=O)c(C(=O)O)cn(C3CC3)c12 (configuration not stated)
solubility (mole fraction)
Conditions	273.15 K	278.15 K	283.15 K	288.15 K	293.15 K	298.15 K	303.15 K	308.15 K	313.15 K	318.15 K
in 1,4-dioxane	–	–	–	0.000952	0.00111	0.00129	0.00149	0.00172	0.00198	0.00228
in 2-butanone	0.00158	0.00186	0.00219	0.00257	0.003	0.00349	0.00405	0.00468	0.00539	0.0062
in DMF	0.00259	0.00305	0.00359	0.00417	0.00486	0.00566	0.00653	0.00751	0.00864	0.00989
in acetone	0.00081	0.000942	0.00111	0.0013	0.00152	0.00177	0.00204	0.00235	0.0027	0.00309
in acetonitrile	0.0013	0.0015	0.00177	0.00208	0.00244	0.00281	0.00322	0.0037	0.00424	0.00485
in ethanol	0.000261	0.000326	0.000403	0.000489	0.000585	0.000698	0.000829	0.000984	0.00116	0.00136
in ethyl acetate	0.00323	0.00378	0.0044	0.00509	0.00588	0.00679	0.00778	0.00893	0.0102	0.0117
in isopropanol	0.000123	0.000158	0.000204	0.000254	0.000322	0.000401	0.000498	0.000613	0.000751	0.000912
in methanol	0.00019	0.000232	0.000294	0.00036	0.000438	0.000531	0.000637	0.000752	0.000902	0.00107
in n-butanol	0.00105	0.00122	0.00143	0.00169	0.00195	0.00225	0.0026	0.00299	0.00344	0.00395
in n-propanol	0.000364	0.000445	0.000545	0.000655	0.000778	0.000922	0.00109	0.00127	0.00149	0.00173
in toluene	5.9e-05	8.1e-05	0.000109	0.000146	0.000199	0.000261	0.000344	0.000446	0.000577	0.000742
